The text below walks through data of patent US6911449B2, “Inhibition of matrix metalloproteases by substituted biaryl oxobutyric acids” (Bayer Pharmaceuticals Corporation, priority 1996, dated 2005).

SMILES strings stand for the structures.

Broadly, the IC50 is the point on the concentration scale where inhibition reaches its midpoint. The melting point is the temperature, or range, at which the solid turns liquid.

One series concerns the target MMP-2 (Homo sapiens, UniProt P08253). The series can be described thus: biochemical. The conditions noted are these: MMP-2 Fluorogenic IC50.
Another series deals with T1, MMP-3 (Homo sapiens, UniProt P08254).
T1 construct: made in house; host or cells: CHO cells
The series can be described thus: P218 quenched fluorescence assay for MMP inhibition, MMP-3. Type of series: biochemical. The conditions noted are these: 6 μM P218 substrate, 25 min at 37° C., pH 6.5; read-out: MMP-3 Fluorogenic IC50. An excerpt:
(§1) P218 Quenched Fluorescence Assay for MMP Inhibition:
(§2) The P218 quenched fluorescence assay (Microfluorometric Profiling Assay) is a modification of that originally described by Knight, et al., FEBS Lett. 296, 263 (1992) for a related substance and a variety of matrix metalloproteinases (MMPs) in cuvettes. The assay was run with each invention compound and the three MMPs, MMP-3, MMP-9 and MMP-2, analyzed in parallel, adapted as follows for a 96-well microtiter plate and a Hamilton AT® workstation.
(§3) P218 Fluorogenic Substrate: P218 is a synthetic substrate containing a 4-acetyl-7-methoxycoumarin (MCA) group in the N-terminal position and a 3-[2,4-dinitrophenyl]-L-2,3-diaminopropionyl (DPA) group internally. This is a modification of a peptide reported by Knight (1992) that was used as a substrate for matrix metalloproteinases. Once the P218 peptide is cleaved (putative clip site at the Ala-Leu bond), the fluorescence of the MCA group can be detected on a fluorometer with excitation at 328 nm and emission at 393 nm. P218 is currently being produced BACHEM exclusively for Bayer. P218 has the structure:
(§4) H-MCA-Pro-Lys-Pro-Leu-Ala-Leu-DPA-Ala-Arg-NH2 (MW 1332.2)
Recombinant Human CHO Stromelysin (MMP-3)
Recombinant Human CHO Pro-MMP-3: Human CHO pro-stromelysin-257 (pro-MMP-3) was expressed and purified as described by Housley, et al., J. Biol. Chem. 268, 4481 (1993).
Activation of Pro-MMP-3: Pro-MMP-3 at 1.72 μM (100 μg/mL) in 5 mM Tris at pH 7.5, 5 mM CaCl2, 25 mM NaCl, and 0.005% Brij-35 (MMP-3 activation buffer) was activated by incubation with TPCK (N-tosyl-(L)-phenylalanine chloromethyl ketone) trypsin (1:100 w/w to pro-MMP-3) at 25° C. for 30 min. The reaction was stopped by addition of soybean trypsin inhibitor (SBTI; 5:1 w/w to trypsin concentration). This activation protocol results in the formation of 45 kDa active MMP-3, which still contains the C-terminal portion of the enzyme.
(§5) Hamiltion Microlab AT Plus: The MMP-Profiling Assay is performed robotically on a Hamilton MicroLab AT Plus®. The Hamilton is programmed to: (1) serially dilute up to 11 potential inhibitors automatically from a 2.5 mM stock in 100% DMSO; (2) distribute substrate followed by inhibitor into a 96 well Cytofluor plate; and (3) add a single enzyme to the plate with mixing to start the reaction. Subsequent plates for each additional enzyme are prepared automatically by beginning the program at the substrate addition point, remixing the diluted inhibitors and beginning the reaction by addition of enzyme. In this way, all MMP assays were done using the same inhibitor dilutions.
(§6) Millipore Cytofluor II. Following incubation, the plate was read on a Cytofluor II fluorometric plate reader with excitation at 340 nm and emission at 395 nm with the gain set at 80.
(§7) Microfluorometric Reaction Buffer (MRB): Dilution of test compounds, enzymes, and P218 substrate for the microfluorometric assay were made in microfluorometric reaction buffer consisting of 50 mM 2-(N-morpholino)ethanesulfonic acid (MES) at pH 6.5 with 10 mM CaCl2, […] NaCl, 0.005% Brij-35 and 1% DMSO.
(§8) MMP Microfluorometric Profiling Assay. The assay is done with a final substrate concentration of 6 μM P218 and approximately 0.5 to 0.8 nM MMP with variable drug concentrations. The Hamilton is programmed to serially dilute up to 11 compounds from a 2.5 mM stock (100% DMSO) to 10× the final compounds concentrations in the assay. Initially, the instrument delivers various amounts of microfluoromentric reaction buffer (MRB) to a 96 tube rack of 1 ml Marsh dilution tubes. The instrument then picks up 20 μl of inhibitor (2.5 mM) from the sample rack and mixes it with a buffer in row A of the Marsh rack, resulting in a 50 μM drug concentration. The inhibitors are then serially diluted to 10, 5, 1, 0.2, 0.05 and 0.01 μM. […]

The next series has as its target T2, MMP-9 (Homo sapiens, UniProt P14780).
T2 construct: made in house
In words: P218 quenched fluorescence assay for MMP inhibition, MMP-9. Type of series: biochemical. The conditions noted are these: 6 μM P218 substrate, 25 min at 37° C., pH 6.5; read-out: MMP-9 Fluorogenic IC50.
Description: as §1, §2, §3, §4
Preparation of Human Recombinant Pro-Gelatinase B (MMP-9):
Recombinant Human Pro-MMP-9: Human pro-gelatinase B (pro-MMP-9) derived from U937 cDNA as described by Wilhelm, et al. J. Biol. Chem. 264, 17213 (1989) was expressed as the full-length form using a baculovirus protein expression system. The pro-enzyme was purified using methods previously described by Hibbs, et al. J. Biol. Chem. 260, 2493 (1984).
Activation of Pro-MMP-9: […] 20 μg/mL in 50 mM Tris at pH 7.4, 10 mM CaCl2, 150 mM NaCl, and 0.005% Brij-35 (MMP-9 activation buffer) was activated by incubation with 0.5 mM p-aminophenylmercuric acetate (APMA) for 3.5 h at 37° C. The enzyme was dialyzed against the same buffer to remove the APMA.
as §5, §6, §7, §8

For series [1] the following is noted: Child, et al., J. Pharm. Sci., 66, 466 (1977); cited from earlier work.

T1 sequence (P08254 100-477): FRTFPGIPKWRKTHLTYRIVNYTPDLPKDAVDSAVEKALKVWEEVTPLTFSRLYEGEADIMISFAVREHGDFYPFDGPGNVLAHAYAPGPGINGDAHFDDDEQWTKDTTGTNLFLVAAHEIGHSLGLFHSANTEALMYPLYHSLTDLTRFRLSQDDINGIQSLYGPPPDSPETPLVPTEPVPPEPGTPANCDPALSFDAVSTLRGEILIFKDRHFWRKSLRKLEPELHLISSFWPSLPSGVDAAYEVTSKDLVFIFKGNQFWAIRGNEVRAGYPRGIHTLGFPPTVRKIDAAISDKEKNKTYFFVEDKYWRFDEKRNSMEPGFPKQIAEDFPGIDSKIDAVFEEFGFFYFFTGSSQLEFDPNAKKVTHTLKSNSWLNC
T2 sequence (P14780 107-707 limits assumed): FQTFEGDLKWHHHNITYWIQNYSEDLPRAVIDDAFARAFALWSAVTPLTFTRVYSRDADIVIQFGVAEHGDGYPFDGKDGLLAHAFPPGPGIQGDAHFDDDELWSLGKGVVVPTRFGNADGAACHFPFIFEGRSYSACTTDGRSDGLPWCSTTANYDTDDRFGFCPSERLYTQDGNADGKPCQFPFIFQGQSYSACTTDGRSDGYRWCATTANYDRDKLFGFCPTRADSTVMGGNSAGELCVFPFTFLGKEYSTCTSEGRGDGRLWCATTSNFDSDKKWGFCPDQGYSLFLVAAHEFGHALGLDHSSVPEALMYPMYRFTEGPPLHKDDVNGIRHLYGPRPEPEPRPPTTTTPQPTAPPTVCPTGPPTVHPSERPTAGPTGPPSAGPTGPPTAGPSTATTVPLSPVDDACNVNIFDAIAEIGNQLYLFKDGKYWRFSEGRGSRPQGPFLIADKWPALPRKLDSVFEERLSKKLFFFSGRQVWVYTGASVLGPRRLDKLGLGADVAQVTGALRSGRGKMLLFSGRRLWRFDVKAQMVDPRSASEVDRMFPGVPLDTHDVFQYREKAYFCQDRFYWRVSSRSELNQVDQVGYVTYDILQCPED
Chain of MMP-2 (P08253 110-660): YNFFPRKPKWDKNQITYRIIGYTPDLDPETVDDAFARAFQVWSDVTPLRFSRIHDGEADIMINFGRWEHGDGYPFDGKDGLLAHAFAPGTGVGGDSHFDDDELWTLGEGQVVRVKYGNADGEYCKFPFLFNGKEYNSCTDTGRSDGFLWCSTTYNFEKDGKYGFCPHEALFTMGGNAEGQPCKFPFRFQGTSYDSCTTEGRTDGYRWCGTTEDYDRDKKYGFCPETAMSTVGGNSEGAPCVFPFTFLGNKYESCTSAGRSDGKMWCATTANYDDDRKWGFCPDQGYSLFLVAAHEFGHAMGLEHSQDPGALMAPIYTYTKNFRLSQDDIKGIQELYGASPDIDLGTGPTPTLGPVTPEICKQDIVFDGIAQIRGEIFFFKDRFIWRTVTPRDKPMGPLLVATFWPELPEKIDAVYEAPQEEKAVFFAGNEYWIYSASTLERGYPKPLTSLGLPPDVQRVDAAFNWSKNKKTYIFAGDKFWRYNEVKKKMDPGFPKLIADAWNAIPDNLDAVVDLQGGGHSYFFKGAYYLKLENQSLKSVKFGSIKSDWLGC

With `O=C(O)C1[C@H](COCOCc2ccccc2)CC[C@@H]1C(=O)c1ccc(-c2ccc(Cl)cc2)cc1` (relative stereo) [Example 2], the melting point lay in the range of 112 to 130 °C. At MMP-2, this compound gave an IC50 of 9.5 nM. The IC50 at MMP-3 was 17 nM. Further, the IC50 at MMP-9 is 24 nM.

On to `O=C(CC(CCn1nnc2ccccc2c1=O)C(=O)O)c1ccc(-c2ccc(Cl)cc2)cc1` (single isomer, unassigned) [Example 20, α-[2-(4′-chloro[1,1′-biphenyl]-4-yl)-2-oxoethyl]-4-oxo-1,2,3,-Benzotriazine-3(4H)-butanoic acid], for which the IC50 against MMP-2 was found to be 57 nM; at MMP-3, 320 nM; on MMP-9, 84 nM.

In the case of `O=C(CC(CCn1nnc2ccccc2c1=O)C(=O)O)c1ccc(-c2ccc(Cl)cc2)cc1` (single isomer, unassigned) [Example 21, α-[2-(4′-chloro[1,1′-biphenyl]-4-yl)-2-oxoethyl]-4-oxo-1,2,3,-Benzotriazine-3(4H)-butanoic acid], the figures for the IC50 at MMP-2, on MMP-3 and on MMP-9 were 1.5 nM, 6.5 nM and 2.1 nM, respectively.

The compound `O=C(c1ccc(-c2ccc(Cl)cc2)cc1)C1CCC(CSC(=S)N2CCCC2)C1C(=O)O` (centres unmarked) [Example 3] displayed a melting point of 177 to 178 °C. Besides, the IC50 at MMP-2 was 21 nM. The IC50 on MMP-3 amounted to 31 nM. Also, the 50% inhibitory concentration (IC50) on MMP-9 is 67 nM.

As to `O=C(c1ccc(-c2ccc(Cl)cc2)cc1)C1CCC(Cn2ncc3ccccc3c2=O)C1C(=O)O` (centres unmarked) [Example 5], the IC50 against MMP-2 came out at 1.4 nM; at MMP-3, 4.2 nM; on MMP-9, 2.3 nM.

On to `O=C(c1ccc(-c2ccc(Cl)cc2)cc1)C1CCC(Cn2c(=O)oc3ccccc32)C1C(=O)O` (centres unmarked) [Example 6], for which the results for the IC50 on MMP-2, on MMP-3 and at MMP-9 were 0.5 nM, 4.1 nM and 4.3 nM, respectively.

`O=C(CC(CCn1ncc2ccccc2c1=O)C(=O)O)c1ccc(-c2ccc(Cl)cc2)cc1` (stereo not drawn) [Example 18, R/S α-[2-(4′-chloro[1,1′-biphenyl]-4-yl)-2-oxoethyl]-1-oxo-2(1H)-phthalazinebutanoic acid]: the IC50 against MMP-2 turned out to be 13 nM; at MMP-3, 59 nM; at MMP-9, 32 nM.

In the case of `O=C(O)CC(C(=O)c1ccc(-c2ccccc2)cc1)c1ccccc1` (centres unmarked) [LXXVII], the “activity as anti-inflammatory analgesic agents” value (“activity” for short) in series [1] was “inactive”.

In the case of `O=C(CC(C(=O)O)c1ccccc1)c1ccc(-c2ccccc2)cc1` (centres unmarked) [XLIX], the “activity” value in series [1] is “inactive”.

Consider `CC(CC(=O)c1ccc(-c2ccccc2)cc1)C(=O)O` (centres unmarked) [XLVII], for which the “activity” value in series [1] is “inactive”.
